The record followed here is patent US20200216416A1, “QUINOLINE COMPOUNDS AS INHIBITORS OF TAM AND MET KINASES” (Array BioPharma Inc., priority 2019, published 2020).

pIC50: −log10 of the molar value.

In experiment [1] the target is T1, His-tagged recombinant human AXL cytoplasmic domain (Homo sapiens, UniProt P30530).
T1 construct: His-tagged recombinant human AXL cytoplasmic domain
T1 sequence (P30530 473-894 limits assumed): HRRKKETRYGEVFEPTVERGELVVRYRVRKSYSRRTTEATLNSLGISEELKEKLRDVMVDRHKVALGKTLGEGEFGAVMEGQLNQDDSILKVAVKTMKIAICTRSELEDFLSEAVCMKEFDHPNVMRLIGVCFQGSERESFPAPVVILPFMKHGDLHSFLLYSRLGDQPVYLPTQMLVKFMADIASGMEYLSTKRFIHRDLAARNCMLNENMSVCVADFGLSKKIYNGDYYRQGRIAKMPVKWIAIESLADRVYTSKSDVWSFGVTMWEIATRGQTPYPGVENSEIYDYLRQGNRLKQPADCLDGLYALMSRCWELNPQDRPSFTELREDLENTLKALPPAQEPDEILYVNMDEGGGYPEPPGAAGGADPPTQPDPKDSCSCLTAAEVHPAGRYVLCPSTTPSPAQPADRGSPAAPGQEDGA
Kind of experiment: AXL Enzyme Assay (LanthaScreen Eu Kinase Binding). Particulars: averaged IC50; 60-minute incubation at 22° C.; TR-FRET. On the procedure: (§1) Compounds disclosed herein were screened for their ability to inhibit AXL kinase using Invitrogen's LanthaScreen™Eu Kinase Binding technology. His-tagged recombinant human AXL cytoplasmic domain was incubated with 20 nM Alexa-Fluor® Tracer 236 (PR9078A), 2 nM biotinylated anti-His (Cat. No. M4408), and 2 nM europium-labeled Streptavidin (Cat. No. PV5899) along with test compound in a buffer consisting of 25 mM HEPES, pH 7.4, 10 mM MgCl2, 0.01% Triton X-100, and 2% DMSO. Compounds were typically prepared in a threefold serial dilution in DMSO and added to the assay to give the appropriate final concentration. After a 60-minute incubation at 22° C., the reaction was measured using a PerkinElmer EnVision multimode plate reader via TR-FRET dual wavelength detection, and the percent of control (POC) was calculated using a ratiometric emission factor. […] The POC values are fit to a 4 parameter logistic curve and the IC50 value is point where the curve crosses 50 POC.
Background: In TR-FRET formats the signal depends on donor and acceptor labels being close together.

Experiment [2] deals with T2, His-tagged recombinant human MER cytoplasmic domain (Homo sapiens, UniProt Q12866).
T2 construct: His-tagged recombinant human MER cytoplasmic domain
T2 sequence (Q12866 527-999 limits assumed): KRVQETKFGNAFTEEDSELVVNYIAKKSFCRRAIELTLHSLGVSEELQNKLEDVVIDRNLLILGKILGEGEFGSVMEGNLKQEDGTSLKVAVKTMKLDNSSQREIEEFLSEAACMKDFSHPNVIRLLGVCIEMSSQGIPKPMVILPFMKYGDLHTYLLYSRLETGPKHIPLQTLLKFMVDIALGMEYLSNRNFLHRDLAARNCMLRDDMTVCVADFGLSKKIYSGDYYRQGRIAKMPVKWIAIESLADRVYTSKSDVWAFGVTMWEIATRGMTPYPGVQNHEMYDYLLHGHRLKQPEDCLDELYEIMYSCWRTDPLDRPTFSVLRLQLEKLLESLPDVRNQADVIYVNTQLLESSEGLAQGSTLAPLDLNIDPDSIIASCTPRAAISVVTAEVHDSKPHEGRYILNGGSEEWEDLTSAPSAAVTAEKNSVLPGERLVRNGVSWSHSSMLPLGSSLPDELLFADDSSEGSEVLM
Kind of experiment: MER Enzyme Assay (LanthaScreen Eu Kinase Binding). Particulars: averaged IC50; MER 5 nM; 60-minute incubation at 22° C.; TR-FRET. As to the method: as §1, with “human MER” for “human AXL”, “domain (5 nM)” for “domain”, “mM MgCl 2,” for “mM MgCl2,”

In experiment [3] the target is T3, GST-tagged recombinant human TYRO3 kinase domain (Homo sapiens, UniProt Q06418).
T3 construct: GST-tagged recombinant human TYRO3 kinase domain; purchased Carna PR7480A
T3 sequence (Q06418 518-790 limits assumed): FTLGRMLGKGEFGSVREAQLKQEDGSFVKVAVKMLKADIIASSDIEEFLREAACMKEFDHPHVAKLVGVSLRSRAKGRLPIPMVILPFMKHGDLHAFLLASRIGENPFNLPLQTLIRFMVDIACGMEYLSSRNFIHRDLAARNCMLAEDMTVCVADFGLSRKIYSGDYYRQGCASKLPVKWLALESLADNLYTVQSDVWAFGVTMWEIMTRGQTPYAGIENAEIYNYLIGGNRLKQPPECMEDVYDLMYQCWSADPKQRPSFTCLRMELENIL
Kind of experiment: TYRO3 Enzyme Assay (LanthaScreen Eu Kinase Binding). Particulars: averaged IC50; TYRO3 5 nM; 60-minute incubation at 22° C.; TR-FRET. As to the method:
Compounds disclosed herein were screened for their ability to inhibit TYRO3 kinase using Invitrogen's LanthaScreenTM Eu Kinase Binding technology. GST-tagged recombinant human TYRO3 kinase domain from Carna (5 nM; Cat. No. P[…]) was incubated with 20 nM Alexa-Fluor® Tracer 236 (P[…]) and 2 nM Europium-anti-GST (Cat. No. A15116) along with test compound in a buffer consisting of 25 mM HEPES, pH 7.4, 10 mM MgCl2, 0.01% Triton X-100, and 2% DMSO. Compounds are typically prepared in a threefold serial dilution in DMSO and added to the assay to give the appropriate final concentration. After a 60-minute incubation at 22° C., the reaction was measured using a PerkinElmer EnVision multimode plate reader via TR-FRET dual wavelength detection, and the percent of control (POC) calculated using a ratiometric emission factor. […] The POC values were fit to a 4 parameter logistic curve and the IC50 value is point where the curve crosses 50 POC.

Regarding `COc1ccc2nccc(Oc3ccc(NC(=O)c4cn(C(C)C)cc(-c5ccc(F)cc5)c4=O)nc3)c2c1` [Example 40, 5-(4-fluorophenyl)-1-isopropyl-N-(5-((6-methoxyquinolin-4-yl)oxy)pyridin-2-yl)-4-oxo-1,4-dihydropyridine-3-carboxamide], the negative-log IC50 (pIC50) – broadly, the negative decadic logarithm of the IC50, by convention in mol/L – in experiment [1] is 8.22; in experiment [2] it was 7.72; in experiment [3] it was 7.72.
